Where “and” joins values, the source holds several entries; their conditions need not be identical. Equal values may be shown once.
Tests used:
Folsomia candida = assay: Multigeneration toxicity test (survival and reproduction) with springtails in spiked LUFA 2.2 soil; type: in vivo; settings: for EC50: number of juveniles
Description: F. candida were taken from cultures at the Department of Ecological Science at the Vrije Universiteit in Amsterdam. To obtain age-synchronized animals, adults from the culture were separated in boxes with a layer of plaster of Paris over a period of 2–3 days to lay eggs, after which they were removed. After removal of the adults, the eggs were incubated under a 12 h light/12 h dark regime at 20 °C and 75% relative humidity, where they hatched and grew. Juveniles of 10–12 days old were used for testing.
All tests were performed in the natural standard LUFA 2.2 (Lufa Speyer, Germany), a loamy sand with 1.59 ± 0.13% organic carbon, pH in 0.01 M CaCl2 of 5.4 ± 0.2, and water holding capacity (WHC) of 43.5 ± 2.8% of its dry weight.
Pure imidacloprid and thiacloprid (purity 98%) were kindly provided by Bayer CropScience, Monheim, Germany. Test concentrations of imidacloprid and thiacloprid were based on the results of earlier tests. Stock solution of both compounds in water were prepared, to spike the chemicals into the soil and at the same time bringing moisture content to the desired level of 50% of the WHC. To ensure complete thiacloprid dissolution, a small amount of acetone was added to the stock solution. This stock solution was used to spike soil with the highest test concentration and further diluted for spiking soil with the lower concentrations tested. Considering the low amount of acetone needed to make thiacloprid completely dissolve, no attempts were made to correct for that by adding acetone to the lower concentrations and control in the multigeneration test. All soils were thoroughly mixed to achieve a homogenous distribution of the test chemicals in the test soil.
Multigeneration tests started with a control, […] imidacloprid (0, 0.001, 0.003, 0.01, 0.03, 0.1, 0.3, 1.0 mg/kg dry soil) and 9 thiacloprid concentrations (0, 0.0015, 0.0045, 0.014, 0.041, 0.11, 0.31, 1.1, 3.3, 10.0 mg/kg dry soil). Batches of soil sufficient to perform three toxicity tests were prepared. After filling test jars for the parent generation exposure, the remaining spiked soil was stored in glass jars in a climate room at 20 °C for subsequent exposure of the next two generations. Moisture content of the spiked soil was checked regularly by weighing the jars, and replenished by adding deionized water if needed.
After 28 days (35 days for the second generation), the juveniles from the same exposure concentration were pooled in the same container with a moist plaster of Paris bottom and incubated overnight before being transferred to the next cycle of exposure. This experiment spanned a total of three continuous generations (referred to as F0, F1, and F2).

[1] = Chemical analysis of concentrations in test soil (LC-MS) and degradation half-life (DT50); type: physicochemical
Description: Soil samples for chemical analysis of imidacloprid and thiacloprid in the test soil were taken at the start of the exposure of each new generation.
The analytical method to determine actual imidacloprid and thiacloprid concentrations in the test soils followed the principles of the QuEChERS extraction method modified from Anastasiades et al. ([2003]) and Payá et al. ([2007]). Briefly, the procedure used was as follows: approx. 1 g moist soil was taken for low concentration treatments (<1 mg/kg), and 50 µL internal standard (Imidacloprid-d4 and Thiacloprid-d4, 250 µg/L) was added. The sample was shaken for 20 min at 250 rpm with 2 mL methanol and centrifuged for 3 min at 1500 rpm. The methanol phase was passed through a granular Na2SO4 column, evaporated till dryness and the residue taken up in 3 mL acetonitrile. For high concentration samples (>1 mg/kg), the soil was first shaken with methanol and centrifuged. Subsequently an aliquot of 100 µL was taken and together with 50 µL internal standard (Imidacloprid-d4 and Thiacloprid-d4, 250 µg/L) added to 1 mL methanol, passed through a granular Na2SO4 column, evaporated to dryness and taken up in 3 mL acetonitrile. For clean-up, the acetonitrile extract was added to a tube filled with Supel QuE (C18 150 mg, PSA 150 mg, MgSO4 900 mg, Sigma Aldrich), shaken by hand for 2 min and centrifuged for 3 min at 3000 rpm. The supernatant was evaporated till dryness under gentle nitrogen stream and the residue taken up in 200 µL of a water-methanol (9/1) mixture.
Extracts were analyzed using LC-MS and quantified by isotope dilution (imidacloprid-d4 and thiacloprid-d4). The neonicotinoids were separated on a 100 × 2.1 mm, 2.6 µm Kinetex XB-C18 column (Phenomenex), applying a gradient of 5 mM ammonium formate pH 4 buffer and methanol, at a flow rate of 0.3 mL/min. The LC system (Agilent 1200 series) was coupled to a 6410 triple quadrupole MS (Agilent) using electrospray ionization (ESI) with data acquisition in positive ion mode. The transitions for imidacloprid were 256.1 > 175/209 (quantifier/qualifier) and for imidacloprid-d4 260 > 179. For thiacloprid the transitions were253.1 > 126/90 (quantifier/qualifier) with 257 > 126 for thiacloprid-d4.
Using data on the imidacloprid and thiacloprid concentrations measured at different times after spiking the soil in the multigeneration test, half-life (DT50) values were estimated assuming first order degradation kinetics. The equation C = C0 * e^−k*t was fitted to the data, with C = concentration at time t in days, C0 is concentration at t = 0 and k = degradation rate constant (day^−1). DT50 was derived as ln(2) / k.

honeybees = test system: honeybees; set-up: method as in Iwasa et al. (2004); settings: acute dermal exposure; ref Iwasa et al. (2004); cited from earlier work
[2] = F0 generation, 28 days, LUFA 2.2 soil, nominal concentrations
[3] = F1 generation, 35 days, soil spiked at start of F0, nominal concentrations
[4] = F2 generation, 28 days, soil spiked at start of F0, nominal concentrations
[5] = range over the three generations, Lufa 2.2, pure compound, this study

Compound: O=[N+]([O-])NC1=NCCN1Cc1ccc(Cl)nc1 [Imidacloprid, imidacloprid]
- NOEC (Folsomia candida; [2]): 0.1 mg/kg dry soil and 0.10 mg/kg dry soil
- LC50 (Folsomia candida; F0 generation, 28 days, adult survival, LUFA 2.2 soil, nominal concentrations): 0.44 mg/kg dry soil
- EC50 (Folsomia candida; [2]): 0.29 mg/kg dry soil
- EC50 (Folsomia candida; [3]): 0.12 mg/kg dry soil
- LC50 (Folsomia candida; [3]): 0.39 mg/kg dry soil
- NOEC (Folsomia candida; [3]): 0.1 mg/kg dry soil and 0.10 mg/kg dry soil
- EC50 (Folsomia candida; [4]): 0.14 mg/kg dry soil
- LC50 (Folsomia candida; [4]): 0.21 mg/kg dry soil
- NOEC (Folsomia candida; [4]): 0.1 mg/kg dry soil and 0.10 mg/kg dry soil
- EC10 (Folsomia candida; Folsomia candida, in vivo, 35 days, pH 5.4): 0.080 mg/kg dry soil
- EC50, range over generations (Folsomia candida; [5]): 0.12–0.29 mg/kg dry soil
- LC50, range over generations (Folsomia candida; [5]): 0.21–0.44 mg/kg dry soil
- concentration, % of the nominal concentration ([1]; LUFA 2.2 soil, after 28 days of incubation at 20 °C, all concentrations analysed): 68.1–83.8%
- recovery, % of the nominal concentration ([1]; LUFA 2.2 soil, start of F0 exposure (T=0)): 77.6–89.9%
- concentration measured in soil ([1]; T=0, nominal 0.01, mean ± SD (n=3)): 0.0078±0.0028 mg/kg dry soil
- concentration measured in soil ([1]; T=0, nominal 0.1, mean ± SD (n=3)): 0.082±0.0018 mg/kg dry soil
- concentration measured in soil ([1]; T=0, nominal 0.3, mean ± SD (n=3)): 0.27±0.014 mg/kg dry soil
- concentration measured in soil ([1]; T=0, nominal 1.0, mean ± SD (n=3)): 0.86±0.022 mg/kg dry soil
- concentration measured in soil ([1]; T=28 d, nominal 0.1, mean ± SD (n=3)): 0.068±0.0025 mg/kg dry soil
- concentration measured in soil ([1]; T=28 d, nominal 0.3, mean ± SD (n=3)): 0.23±0.0092 mg/kg dry soil
- concentration measured in soil ([1]; T=28 d, nominal 1.0, mean ± SD (n=3)): 0.84±0.083 mg/kg dry soil
- half-life ([1]; pH 5.4): ≥ 125 days
- times more toxic than thiacloprid (honeybees): about 800 times

Source: PMC5397431, “Multigeneration toxicity of imidacloprid and thiacloprid to Folsomia candida” (Ecotoxicology (London, England), 2017)
